# Laboratory results published in patent publication US8546381B2, “Bridged heterocyclic compounds and methods of use” (Medivation Technologies, Inc., priority 2008, dated 2013).
# Molecular target: T1, human recombinant histamine H1 receptor (Homo sapiens, UniProt P35367)
# T1 construct: expressed in transfected cells; host or cells: CHO cells
# Assay: Histamine H1 radioligand binding ([3H]Pyrilamine)
# Settings: compound at 1 μM; inhibition of specific [3H]Pyrilamine binding; read-out: Histamine Binding (1 μM) H1, Percentage Inhibition
# Protocol: To evaluate in radioligand binding assays the activity of compounds of the invention, human recombinant histamine H1 receptor expressed in Chinese hamster ovary (CHO) cells (De Backer, M. D. et al., Biochem. Biophys. Res. Comm. 197(3):1601, 1993) in a modified Tris-HCl buffer (50 mM Tris-HCl, pH 7.4, 2 mM MgCl2, 100 mM NaCl, 250 mM Sucrose) was used. Compounds of the invention were incubated with 1.2 nM [^3H]Pyrilamine for 180 minutes at 25° C. Non-specific binding was estimated in the presence of 1 μM pyrilamine. Receptor proteins were filtered and washed, the filters were then counted to determine [^3H]Pyrilamine specifically bound. Compounds were screened at 1 μM or lower, using 1% DMSO as vehicle. Biochemical assay results are presented as the percent inhibition of specific binding in Table 2.
# T1 sequence (P35367 whole entry): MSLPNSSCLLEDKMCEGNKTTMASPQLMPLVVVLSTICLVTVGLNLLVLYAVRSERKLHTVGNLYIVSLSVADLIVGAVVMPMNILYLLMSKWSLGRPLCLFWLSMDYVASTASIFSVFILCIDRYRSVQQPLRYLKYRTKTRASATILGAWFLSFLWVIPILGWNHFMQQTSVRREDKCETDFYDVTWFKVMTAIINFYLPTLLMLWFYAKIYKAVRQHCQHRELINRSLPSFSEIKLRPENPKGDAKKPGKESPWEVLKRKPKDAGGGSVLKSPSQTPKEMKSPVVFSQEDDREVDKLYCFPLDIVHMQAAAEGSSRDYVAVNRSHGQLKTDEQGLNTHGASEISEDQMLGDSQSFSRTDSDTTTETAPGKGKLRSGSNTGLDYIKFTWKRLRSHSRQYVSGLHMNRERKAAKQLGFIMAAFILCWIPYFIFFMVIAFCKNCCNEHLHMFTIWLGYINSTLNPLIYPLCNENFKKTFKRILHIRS
row,SMILES,inhibition at 1 µM
1,Cc1ccc2c(c1)c1c(n2CCc2ccc(F)cc2)CC2CCC1N2C (centres unmarked) [Compound 62],98%
2,C/C(=C\n1c2c(c3cc(C)ccc31)C1CCC(C2)N1C)c1ccc(F)cc1 (centres unmarked) [Compound 124],31%
3,CN1C2CCC1c1c(n(C#Cc3ccc(F)cc3)c3ccc(Cl)cc13)C2 (centres unmarked) [Compound 138],57%
4,C/C(=C/n1c2c(c3ccccc31)[C@@H]1CC[C@H](C2)N1C)c1ccc(F)cc1 [Compound 121],17%
5,Cc1ccc(CCn2c3c(c4cc(Cl)ccc42)C2CCC(C3)N2C)cc1 (centres unmarked) [Compound 61],98%
6,Cc1ccc2c(c1)c1c(n2CCC#N)CC2CCC1N2C (centres unmarked) [Compound 103],85%
7,CN1C2CCC1c1c(n(CCc3cncc(Cl)c3)c3ccc(Cl)cc13)C2 (centres unmarked) [Compound 87],96%
8,Cc1ccc(CCn2c3c(c4cc(Cl)ccc42)C2CCC(C3)N2C)cn1 (centres unmarked) [Compound 79],93%
9,COc1ccc(CCn2c3c(c4cc(Cl)ccc42)C2CCC(C3)N2C)cc1 (centres unmarked) [Compound 84],83%
10,Cc1ncc(CCn2c3c(c4cc(Cl)ccc42)C2CCC(C3)N2C)cn1 (centres unmarked) [Compound 82],44%
11,COc1ccc(C(C)(O)Cn2c3c(c4cc(C)ccc42)C2CCC(C3)N2C)cc1F (centres unmarked) [Compound 161],84%
12,CN1C2CCC1c1c(n(CCC(N)=O)c3ccc(Cl)cc13)C2 (centres unmarked) [Compound 73],10%
13,CN1C2CCC1c1c(n(CCC(=O)O)c3ccc(Cl)cc13)C2 (centres unmarked) [Compound 72],14%
14,Cc1cncc(CCn2c3c(c4cc(C)ccc42)C2CCC(C3)N2C)c1 (centres unmarked) [Compound 90],93%

# Molecular target: T2, human recombinant histamine H2 receptor (Homo sapiens, UniProt P25021)
# T2 construct: expressed in transfected cells; host or cells: CHO-K1 cells
# T2 sequence (P25021 whole entry): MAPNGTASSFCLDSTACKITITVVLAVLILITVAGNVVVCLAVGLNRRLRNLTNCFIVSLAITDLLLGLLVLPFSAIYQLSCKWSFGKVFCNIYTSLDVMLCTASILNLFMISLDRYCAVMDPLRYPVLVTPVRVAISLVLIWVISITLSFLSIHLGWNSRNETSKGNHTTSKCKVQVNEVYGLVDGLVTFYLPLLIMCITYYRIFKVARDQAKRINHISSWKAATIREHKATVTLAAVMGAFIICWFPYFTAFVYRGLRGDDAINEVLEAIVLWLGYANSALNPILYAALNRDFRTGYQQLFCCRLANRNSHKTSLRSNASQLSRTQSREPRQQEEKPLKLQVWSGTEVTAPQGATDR
# Assay: Histamine H2 radioligand binding ([125I]Aminopotentidine)
# Settings: compound at 1 μM; inhibition of specific [125I]Aminopotentidine binding; read-out: Histamine Binding (1 μM) H2, Percentage Inhibition
# Protocol: To evaluate in radioligand binding assays the activity of compounds of the invention, human recombinant histamine H2 receptor expressed in Chinese hamster ovary (CHO) K1 cells (Ruat, M., Proc. Natl. Acad. Sci. USA. 87(5):1658, 1990) in a 50 mM Phosphate buffer, pH 7.4 was used. Compounds of the invention were incubated with 0.1 nM [^125I]Aminopotentidine for 120 minutes at 25° C. Non-specific binding was estimated in the presence of 3 μM Tiotidine. Receptor proteins were filtered and washed, the filters were then counted to determine [^125I]Aminopotentidine specifically bound. Compounds were screened at 1 μM or lower, using 1% DMSO as vehicle. Biochemical assay results are presented as the percent inhibition of specific binding in Table 2.
row,SMILES,inhibition at 1 µM
1,Cc1ccc2c(c1)c1c(n2CCc2ccc(F)cc2)CC2CCC1N2C (centres unmarked) [Compound 62],52%
2,C/C(=C\n1c2c(c3cc(C)ccc31)C1CCC(C2)N1C)c1ccc(F)cc1 (centres unmarked) [Compound 124],79%
3,CN1C2CCC1c1c(n(C#Cc3ccc(F)cc3)c3ccc(Cl)cc13)C2 (centres unmarked) [Compound 138],70%
4,C/C(=C/n1c2c(c3ccccc31)[C@@H]1CC[C@H](C2)N1C)c1ccc(F)cc1 [Compound 121],21%
5,Cc1ccc(CCn2c3c(c4cc(Cl)ccc42)C2CCC(C3)N2C)cc1 (centres unmarked) [Compound 61],52%
6,Cc1ccc2c(c1)c1c(n2CCC#N)CC2CCC1N2C (centres unmarked) [Compound 103],1%
7,CN1C2CCC1c1c(n(CCc3cncc(Cl)c3)c3ccc(Cl)cc13)C2 (centres unmarked) [Compound 87],7%
8,Cc1ccc(CCn2c3c(c4cc(Cl)ccc42)C2CCC(C3)N2C)cn1 (centres unmarked) [Compound 79],1%
9,COc1ccc(CCn2c3c(c4cc(Cl)ccc42)C2CCC(C3)N2C)cc1 (centres unmarked) [Compound 84],63%
10,Cc1ncc(CCn2c3c(c4cc(Cl)ccc42)C2CCC(C3)N2C)cn1 (centres unmarked) [Compound 82],-8%
11,COc1ccc(C(C)(O)Cn2c3c(c4cc(C)ccc42)C2CCC(C3)N2C)cc1F (centres unmarked) [Compound 161],20%
12,CN1C2CCC1c1c(n(CCC(N)=O)c3ccc(Cl)cc13)C2 (centres unmarked) [Compound 73],-1%
13,CN1C2CCC1c1c(n(CCC(=O)O)c3ccc(Cl)cc13)C2 (centres unmarked) [Compound 72],7%
14,Cc1cncc(CCn2c3c(c4cc(C)ccc42)C2CCC(C3)N2C)c1 (centres unmarked) [Compound 90],-1%

# Molecular target: T3, human recombinant adrenergic α2B receptor (Homo sapiens, UniProt P18089)
# T3 construct: expressed in transfected cells; host or cells: CHO-K1 cells
# T3 sequence (P18089 1-450): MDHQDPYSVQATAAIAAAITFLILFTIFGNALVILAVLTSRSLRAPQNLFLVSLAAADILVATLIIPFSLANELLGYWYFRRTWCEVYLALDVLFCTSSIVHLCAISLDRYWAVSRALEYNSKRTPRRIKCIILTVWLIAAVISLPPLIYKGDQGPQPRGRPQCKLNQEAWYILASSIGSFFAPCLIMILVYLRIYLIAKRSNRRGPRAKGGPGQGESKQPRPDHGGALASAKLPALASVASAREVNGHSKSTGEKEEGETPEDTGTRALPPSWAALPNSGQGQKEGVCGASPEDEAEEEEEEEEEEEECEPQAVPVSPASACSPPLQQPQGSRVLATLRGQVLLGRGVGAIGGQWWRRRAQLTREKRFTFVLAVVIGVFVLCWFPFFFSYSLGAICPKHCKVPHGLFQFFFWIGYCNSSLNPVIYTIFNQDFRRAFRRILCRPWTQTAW
# Assay: Adrenergic α2B radioligand binding ([3H]Rauwolscine)
# Settings: 1 μM; read-out: Adrenergic α2B, inhibition of ligand binding (1 μM)
# Protocol: To evaluate in radioligand binding assays the activity of compounds of the invention, human recombinant adrenergic α2B receptor expressed in Chinese hamster ovary (CHO-K1) cells (Uhlen S et al. Eur J. Pharmacol. 343(1):93, 1998) in a modified Tris-HCl buffer (50 mM Tris-HCl, pH 7.4, 12.5 mM MgCl2, 1 mM EDTA, 0.2% BSA) was used. Compounds of the invention were incubated with 2.5 nM [^3H]Rauwolscine for 60 minutes at 25° C. Non-specific binding was estimated in the presence of 10 μM Prozosin. Receptor proteins were filtered and washed, the filters were then counted to determine [^3H]Rauwolscine specifically bound. Compounds were screened at 1 μM or lower, using 1% DMSO as vehicle. Biochemical assay results are presented as the percent inhibition of specific binding in Table 3.
row,SMILES,inhibition at 1 µM
1,Cc1ccc2c(c1)c1c(n2CCc2ccc(F)cc2)CC2CCC1N2C (centres unmarked) [Compound 62],104%
2,C/C(=C\n1c2c(c3cc(C)ccc31)C1CCC(C2)N1C)c1ccc(F)cc1 (centres unmarked) [Compound 124],101%
3,CN1C2CCC1c1c(n(C#Cc3ccc(F)cc3)c3ccc(Cl)cc13)C2 (centres unmarked) [Compound 138],109%
4,C/C(=C/n1c2c(c3ccccc31)[C@@H]1CC[C@H](C2)N1C)c1ccc(F)cc1 [Compound 121],100%
5,Cc1ccc(CCn2c3c(c4cc(Cl)ccc42)C2CCC(C3)N2C)cc1 (centres unmarked) [Compound 61],96%
6,Cc1ccc2c(c1)c1c(n2CCC#N)CC2CCC1N2C (centres unmarked) [Compound 103],94%
7,CN1C2CCC1c1c(n(CCc3cncc(Cl)c3)c3ccc(Cl)cc13)C2 (centres unmarked) [Compound 87],98%
8,Cc1ccc(CCn2c3c(c4cc(Cl)ccc42)C2CCC(C3)N2C)cn1 (centres unmarked) [Compound 79],87%
9,COc1ccc(CCn2c3c(c4cc(Cl)ccc42)C2CCC(C3)N2C)cc1 (centres unmarked) [Compound 84],98%
10,Cc1ncc(CCn2c3c(c4cc(Cl)ccc42)C2CCC(C3)N2C)cn1 (centres unmarked) [Compound 82],47%
11,COc1ccc(C(C)(O)Cn2c3c(c4cc(C)ccc42)C2CCC(C3)N2C)cc1F (centres unmarked) [Compound 161],95%
12,CN1C2CCC1c1c(n(CCC(N)=O)c3ccc(Cl)cc13)C2 (centres unmarked) [Compound 73],73%
13,CN1C2CCC1c1c(n(CCC(=O)O)c3ccc(Cl)cc13)C2 (centres unmarked) [Compound 72],-8%
14,Cc1cncc(CCn2c3c(c4cc(C)ccc42)C2CCC(C3)N2C)c1 (centres unmarked) [Compound 90],75%

# Molecular target: T4, human recombinant serotonin (5-Hydroxytryptamine) 5-HT2C receptor (Homo sapiens, UniProt P28335)
# T4 construct: expressed in transfected cells; host or cells: CHO-K1 cells
# T4 sequence (P28335 33-458): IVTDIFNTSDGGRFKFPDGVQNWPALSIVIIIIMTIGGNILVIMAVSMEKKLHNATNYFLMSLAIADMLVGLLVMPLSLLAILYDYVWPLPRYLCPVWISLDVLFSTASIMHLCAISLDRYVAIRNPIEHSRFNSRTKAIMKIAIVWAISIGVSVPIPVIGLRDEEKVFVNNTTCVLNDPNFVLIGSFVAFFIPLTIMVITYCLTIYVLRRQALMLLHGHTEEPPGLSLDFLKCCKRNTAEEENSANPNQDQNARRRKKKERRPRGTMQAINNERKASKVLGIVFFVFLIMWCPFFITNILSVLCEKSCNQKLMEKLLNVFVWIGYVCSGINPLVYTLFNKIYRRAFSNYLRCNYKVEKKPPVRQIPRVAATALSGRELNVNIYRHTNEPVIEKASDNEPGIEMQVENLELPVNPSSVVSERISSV
# Assay: Serotonin 5-HT2C radioligand binding ([3H]Mesulergine)
# Settings: read-out: Serotonin 5-HT2C, inhibition of ligand binding (1 μM)
# Protocol: To evaluate in radioligand binding assays the activity of compounds of the invention, human recombinant serotonin (5-Hydroxytryptamine) 5-HT2C receptor expressed in Chinese hamster ovary (CHO-K1) cells (Wolf, W. A. and Schutz, J. S., J. Neurochem. 69:1449, 1997) in a modified Tris-HCl buffer (50 mM Tris-HCl, pH 7.4, 0.1% Ascorbic Acid, 10 μM Pargyline) was used. Compounds of the invention were incubated with 1 nM [^3H]Mesulergine for 60 minutes at 25° C. Non-specific binding was estimated in the presence of 1 μM Mianserin. Receptor proteins were filtered and washed, the filters were then counted to determine [^3H]Mesulergine specifically bound. Compounds were screened at 1 μM or lower, using 1% DMSO as vehicle. Biochemical assay results are presented as the percent inhibition of specific binding in Table 4.
row,SMILES,inhibition at 1 µM
1,Cc1ccc2c(c1)c1c(n2CCc2ccc(F)cc2)CC2CCC1N2C (centres unmarked) [Compound 62],87%
2,C/C(=C\n1c2c(c3cc(C)ccc31)C1CCC(C2)N1C)c1ccc(F)cc1 (centres unmarked) [Compound 124],86%
3,CN1C2CCC1c1c(n(C#Cc3ccc(F)cc3)c3ccc(Cl)cc13)C2 (centres unmarked) [Compound 138],97%
4,C/C(=C/n1c2c(c3ccccc31)[C@@H]1CC[C@H](C2)N1C)c1ccc(F)cc1 [Compound 121],88%
5,Cc1ccc(CCn2c3c(c4cc(Cl)ccc42)C2CCC(C3)N2C)cc1 (centres unmarked) [Compound 61],86%
6,Cc1ccc2c(c1)c1c(n2CCC#N)CC2CCC1N2C (centres unmarked) [Compound 103],33%
7,CN1C2CCC1c1c(n(CCc3cncc(Cl)c3)c3ccc(Cl)cc13)C2 (centres unmarked) [Compound 87],30%
8,Cc1ccc(CCn2c3c(c4cc(Cl)ccc42)C2CCC(C3)N2C)cn1 (centres unmarked) [Compound 79],13%
9,COc1ccc(CCn2c3c(c4cc(Cl)ccc42)C2CCC(C3)N2C)cc1 (centres unmarked) [Compound 84],93%
10,Cc1ncc(CCn2c3c(c4cc(Cl)ccc42)C2CCC(C3)N2C)cn1 (centres unmarked) [Compound 82],60%
11,COc1ccc(C(C)(O)Cn2c3c(c4cc(C)ccc42)C2CCC(C3)N2C)cc1F (centres unmarked) [Compound 161],92%
12,CN1C2CCC1c1c(n(CCC(N)=O)c3ccc(Cl)cc13)C2 (centres unmarked) [Compound 73],5%
13,CN1C2CCC1c1c(n(CCC(=O)O)c3ccc(Cl)cc13)C2 (centres unmarked) [Compound 72],-4%
14,Cc1cncc(CCn2c3c(c4cc(C)ccc42)C2CCC(C3)N2C)c1 (centres unmarked) [Compound 90],27%
